Test results taken from patent US20030087906A1, “NITROGEN SUBSTITUTED BIARYL PURINE DERIVATIVES AS POTENT ANTIPROLIFERATIVE AGENTS” (priority 2001, published 2003).
Values joined by “and” are separate entries in the source; they are usually repeats but may differ in a detail not shown here. Equal values may be shown once.

Legend:
LOX IMVI = assay: NCI 60-cell line growth inhibition assay; type: cell-based; conditions: Homo sapiens
OVCAR-3 = assay: NCI 60-cell line growth inhibition assay; type: cell-based; conditions: Homo sapiens
A549/ATCC = assay: NCI 60-cell line growth inhibition assay; type: cell-based; conditions: Homo sapiens
HOP-62 = assay: NCI 60-cell line growth inhibition assay; type: cell-based; conditions: Homo sapiens
HCT-15 = assay: NCI 60-cell line growth inhibition assay; type: cell-based; conditions: Homo sapiens
COLO 205 = assay: NCI 60-cell line growth inhibition assay; type: cell-based; conditions: Homo sapiens
OVCAR-8 = assay: NCI 60-cell line growth inhibition assay; type: cell-based; conditions: Homo sapiens
[1] = test system: Tumor Cells in Hollow Fibers; assay: NCI Hollow Fiber Assay (in vivo evaluation); conditions: for IP Score: IP fibers; for SC score: SC fibers
NCI-H226 = assay: NCI 60-cell line growth inhibition assay; type: cell-based; conditions: Homo sapiens
A498 = assay: NCI 60-cell line growth inhibition assay; type: cell-based; conditions: Homo sapiens
DU-145 = assay: NCI 60-cell line growth inhibition assay; type: cell-based; conditions: Homo sapiens
[2] = MTD (NCI in vivo evaluation, Table 8); conditions: mouse
MALME-3M = assay: NCI 60-cell line growth inhibition assay; type: cell-based; conditions: Homo sapiens
EKVX = assay: NCI 60-cell line growth inhibition assay; type: cell-based; conditions: Homo sapiens
MDA-N = assay: NCI 60-cell line growth inhibition assay; type: cell-based; conditions: Homo sapiens
MCF7 = assay: NCI 60-cell line growth inhibition assay; type: cell-based; conditions: Homo sapiens
BT-549 = assay: NCI 60-cell line growth inhibition assay; type: cell-based; conditions: Homo sapiens
SK-OV-3 = assay: NCI 60-cell line growth inhibition assay; type: cell-based; conditions: Homo sapiens
NCI-H460 = assay: NCI 60-cell line growth inhibition assay; type: cell-based; conditions: Homo sapiens
IGROV1 = assay: NCI 60-cell line growth inhibition assay; type: cell-based; conditions: Homo sapiens, IGROV-1
HeLa S-3 cells = assay: Inhibition of cell growth of HeLa cells (SRB); type: cell-based, human; conditions: 2 days of treatment, replicate experiments
CyclinE/cdk2 = CyclinE/cdk2 (Homo sapiens, UniProt P24941); assay: CyclinE/cdk2 protein kinase assay (histone H1 phosphorylation); conditions: IC50 CyclinE/cdk2, complex immunopurified from HeLa cells; 15 μM ATP; replicate experiments
CyclinA/cdk2 = CyclinA/cdk2 (Homo sapiens, UniProt P24941); assay: CyclinA/cdk2 protein kinase assay (histone H1 phosphorylation); conditions: IC50 CyclinA/cdk2, complex immunopurified from HeLa cells; 15 μM ATP; replicate experiments
TK-10 = assay: NCI 60-cell line growth inhibition assay; type: cell-based; conditions: Homo sapiens; TK-10 (Renal)
CyclinB/cdk1 = molecular target: T1, CyclinB/cdk1 (Homo sapiens, UniProt P06493); assay: CyclinB/cdk1 protein kinase assay (histone H1 phosphorylation); type: biochemical; conditions: complex immunopurified from HeLa cells; 15 μM ATP; replicate experiments
T1 construct: Monoclonal antibody against cyclinB (GNS1) is added to the supernatant; endogenous in cells
Experimental: HeLa cells are blocked at the G1/S border by culturing in the presence of 2 mM thymidine for 20 h. The cells are then rinsed 3×in phosphate buffered saline and resuspended in regular medium. After 4 h of culture, the mitotic blocker, nocodazole is added to a final concentration of 75 ng/ml. […] The lysate is then clarified by centrifugation at 10,000×g for 10 min. The supernatant is collected and diluted 1:5 with Lysis Buffer. Monoclonal antibody against cyclinB (GNS1) is added to the supernatant to a final concentration of 5 μg/ml and shaken at 4° C. for 2 h. The immune complexes are then collected by the addition of 200 μl of protein agarose beads for 1 h. The beads are washed 4×in lysis buffer and 1×in kinase assay buffer.
Duplicate assays were performed at each concentration.

[3] = A549/ATCC (Non-Small Cell Lung)

T1 sequence (P06493 whole entry): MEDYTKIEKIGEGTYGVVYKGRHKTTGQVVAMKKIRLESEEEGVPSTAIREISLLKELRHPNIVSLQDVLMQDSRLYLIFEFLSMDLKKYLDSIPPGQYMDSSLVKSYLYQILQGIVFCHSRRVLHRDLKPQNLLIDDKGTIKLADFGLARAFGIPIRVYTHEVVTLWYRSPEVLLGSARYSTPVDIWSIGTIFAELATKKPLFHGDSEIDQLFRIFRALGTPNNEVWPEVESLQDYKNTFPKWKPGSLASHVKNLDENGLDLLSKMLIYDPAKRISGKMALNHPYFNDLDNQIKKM
T1 sequence (P14635 whole entry partner): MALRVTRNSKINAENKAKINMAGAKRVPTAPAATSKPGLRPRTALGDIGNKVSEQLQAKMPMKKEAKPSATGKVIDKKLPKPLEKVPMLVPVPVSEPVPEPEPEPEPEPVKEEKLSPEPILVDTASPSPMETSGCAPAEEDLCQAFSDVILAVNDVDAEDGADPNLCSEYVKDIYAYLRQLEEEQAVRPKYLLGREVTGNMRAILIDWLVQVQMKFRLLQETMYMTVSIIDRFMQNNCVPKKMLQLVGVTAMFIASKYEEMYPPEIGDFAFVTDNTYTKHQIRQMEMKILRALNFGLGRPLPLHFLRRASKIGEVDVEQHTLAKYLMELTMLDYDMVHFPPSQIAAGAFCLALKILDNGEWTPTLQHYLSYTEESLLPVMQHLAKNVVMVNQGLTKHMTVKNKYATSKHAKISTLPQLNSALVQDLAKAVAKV

SMILES | IP Score [1] | SC score [1] | MTD [2] [mg/kg] | GI50 (LOX IMVI; LOX IMVI (Melanoma)) [nM] | GI50 (OVCAR-3; OVCAR-3 (Ovarian)) [nM] | GI50 (A549/ATCC; [3]) [nM] | GI50 (HOP-62; HOP-62 (Non-Small Cell Lung)) [nM] | GI50 (HCT-15; HCT-15 (Colon)) [nM] | GI50 (COLO 205; COLO 205 (Colon)) [nM] | GI50 (OVCAR-8; OVCAR-8 (Ovarian)) [nM] | GI50 (A498; A498 (Renal)) [nM] | GI50 (DU-145; DU-145 (Prostate)) [nM] | IC50 (CyclinA/cdk2) | GI50 (TK-10) [nM] | GI50 (MALME-3M; MALME-3M (Melanoma)) [nM] | GI50 (MCF7; MCF7 (Breast)) [nM] | GI50 (BT-549; BT-549 (Breast)) [nM] | GI50 (SK-OV-3; SK-OV-3 (Ovarian)) [nM] | GI50 (NCI-H460; NCI-H460 (Non-Small Cell Lung)) [nM] | GI50 (IGROV1; IGROV1 (Ovarian)) [nM] | also measured
CC[C@H](CO)Nc1nc(NCc2ccc(-c3ccccn3)cc2)c2ncn(C(C)C)c2n1 [Compound 17] | 8 | 0 | 100 |  |  |  |  |  |  |  |  |  |  |  |  |  |  |  |  |  | GI50 (LOX IMVI; Melanoma, LOX IMVI): 320 nM; GI50 (OVCAR-3; Ovarian, OVCAR-3): 650 nM; GI50 (A549/ATCC; Non-Small Cell Lung, A549/ATCC): 30 nM; GI50 (HOP-62; Non-Small Cell Lung, HOP-62): 200 nM; GI50 (HCT-15; Colon, HCT-15): 40 nM; GI50 (COLO 205; Colon, COLO 205): 50 nM; GI50 (OVCAR-8; Ovarian, OVCAR-8): 130 nM; GI50 (NCI-H226; Non-Small Cell Lung, NCI-H226): 110 nM; GI50 (A498; Renal, A498): 1580 nM; GI50 (DU-145; Prostate, DU-145): 630 nM; GI50 (MALME-3M; Melanoma, MALME-3M): 20000 nM; GI50 (EKVX; Non-Small Cell Lung, EKVX): 2510 nM; GI50 (MDA-N; Breast, MDA-N): 110 nM; GI50 (MCF7; Breast, MCF7): 160 nM; GI50 (BT-549; Breast, BT-549): 400 nM; GI50 (SK-OV-3; Ovarian, SK-OV-3): 400 nM; GI50 (NCI-H460; Non-Small Cell Lung, NCI-H460): 410 nM; GI50 (IGROV1; Ovarian, IGROV1): 200 nM
CC[C@H](CO)Nc1nc(NCc2ccc(-c3cccc([N+](=O)[O-])c3)cc2)c2ncn(C(C)C)c2n1 [Compound 48] |  |  |  | 190 | 170 | < 10 | 30 | 20 | 30 | 100 | 390 | 550 | 22000 nM and 6000 nM | 370 | 130 | 250 | 10 | 1380 | 250 | 230 | GI50 (HeLa S-3 cells): 600 nM and 500 nM; GI50 (HeLa S-3 cells; Homo sapiens, HeLa S3, 48 h): 300 nM; IC50 (CyclinE/cdk2): 1000 nM and 5000 nM; GI50 (MDA-N; MDA-N (Breast)): 20 nM
CC(C)n1cnc2c(NCc3ccc(-c4ccccn4)cc3)nc(N[C@H]3CC[C@H](N)CC3)nc21 [Compound 78] | 34 | 0 | 6.3 |  | 30 | < 10 | 20 | 1480 | < 10 | 20 | 30 | 60 | 900 nM and 700 nM | 70 | 10 | < 10 | 40 | 60 | 50 | < 10 | IC50 (CyclinE/cdk2): 600 nM and 300 nM and 200 nM; Cell Types Killed [1]: OVCAR 3, SF29; GI50 (NCI-H226; NCI-H226 (Non-Small Cell Lung)): 20 nM; GI50 (EKVX; EKVX (Non-Small Cell Lung)): 50 nM; GI50 (MDA-N; MDA-N (Breast)): < 10 nM; IC50 (CyclinB/cdk1): 800 nM
CC(=O)N[C@H]1CC[C@H](Nc2nc(NCc3ccc(-c4ccccc4)nc3)c3ncn(C(C)C)c3n2)CC1 [Compound 87] | 30 | 2 |  | 27 | 50 | < 10 | 10 | 66 | < 10 |  | 100 | 220 | 4000 nM and 2000 nM and 500 nM | 29 | 24 | 40 | 20 | 350 | 220 | 52 | GI50 (HeLa S-3 cells): 6 nM; IC50 (CyclinE/cdk2): 1000 nM and 300 nM and 100 nM; IC50 (CyclinB/cdk1): 5000 nM
CC(=O)N[C@H]1CC[C@H](Nc2nc(NCc3ccc(-c4ccccn4)cc3)c3ncn(C(C)C)c3n2)CC1 [Compound 79] | 26 | 6 | 6.3 | < 10 | < 10 | < 10 | < 10 | < 10 | < 10 | < 10 | < 10 | < 10 | 500 nM and 1000 nM | < 10 | < 10 | < 10 | < 10 | < 10 | < 10 | < 10 | GI50 (NCI-H226; NCI-H226 (Non-Small Cell Lung)): < 10 nM; GI50 (EKVX; EKVX (Non-Small Cell Lung)): < 10 nM; GI50 (MDA-N; MDA-N (Breast)): < 10 nM; IC50 (CyclinB/cdk1): 3000 nM
CC[C@H](CO)Nc1nc(NCc2ccc(-c3ccc(OC)cc3)cc2)c2ncn(C(C)C)c2n1 [Compound 43] |  |  |  | 3400 | 9300 | 4100 | 3300 | 3900 | 1600 | 3900 | 3000 | 2600 |  | 3200 | 3000 | 2700 | 4000 | 72400 | 3200 | 3400 | GI50 (HeLa S-3 cells; Homo sapiens, HeLa S3, 48 h): 4000 nM; GI50 (EKVX; EKVX (Non-Small Cell Lung)): 2800 nM
CC[C@H](CO)Nc1nc(NCc2ccc(-c3ccccc3)cc2)c2ncn(C(C)C)c2n1 [Compound 73] | 2 | 0 | 100 |  |  |  |  |  |  |  |  |  |  |  |  |  |  |  |  |  | GI50 (OVCAR-3; Ovarian, OVCAR-3): 300 nM; GI50 (A549/ATCC; Non-Small Cell Lung, A549/ATCC): 30 nM; GI50 (HOP-62; Non-Small Cell Lung, HOP-62): 60 nM; GI50 (HCT-15; Colon, HCT-15): 180 nM; GI50 (HeLa S-3 cells; Homo sapiens, HeLa S3, 48 h): 300 nM; GI50 (COLO 205; Colon, COLO 205): 280 nM; GI50 (NCI-H226; Non-Small Cell Lung, NCI-H226): 220 nM; GI50 (A498; Renal, A498): 2880 nM; GI50 (DU-145; Prostate, DU-145): 7080 nM; GI50 (MALME-3M; Melanoma, MALME-3M): 270 nM; GI50 (EKVX; Non-Small Cell Lung, EKVX): 250 nM; GI50 (MDA-N; Breast, MDA-N): 130 nM; GI50 (MCF7; Breast, MCF7): 160 nM; GI50 (BT-549; Breast, BT-549): 250 nM; GI50 (SK-OV-3; Ovarian, SK-OV-3): 950 nM; GI50 (NCI-H460; Non-Small Cell Lung, NCI-H460): 400 nM; GI50 (IGROV1; Ovarian, IGROV1): 320 nM
CC(C)n1cnc2c(NCc3ccc(-c4ccsc4)cc3)nc(N[C@H]3CC[C@H](N)CC3)nc21 [Compound 12] | 26 | 4 | 3.1 | < 5 | 12 | < 5 | < 5 | 170 | < 5 | 7.6 | 16 | 17 | 2000 nM and 700 nM and 900 nM and 200 nM | 10 |  | < 5 | 41 |  |  | 13 | Cell Types Killed [1]: MDA-MB-435; GI50 (NCI-H226; NCI-H226 (Non-Small Cell Lung)): 21 nM; GI50 (EKVX; EKVX (Non-Small Cell Lung)): 23 nM; GI50 (MDA-N; MDA-N (Breast)): < 5 nM; IC50 (CyclinB/cdk1): 3000 nM
Cn1cnc2c(NCc3ccccc3)nc(NCCO)nc21 [Olomoucine, reference compound] |  |  |  | 32000 | 79000 | 50000 | 32000 | 40000 | 32000 | 63000 | 32000 | 40000 |  | 63000 | 100000 | 50000 | 79000 | 100000 | 63000 | 40000 | GI50 (HeLa S-3 cells; Homo sapiens, HeLa S3, 48 h): 75000 nM; GI50 (NCI-H226; NCI-H226 (Non-Small Cell Lung)): 50000 nM; GI50 (EKVX; EKVX (Non-Small Cell Lung)): 100000 nM; GI50 (MDA-N; MDA-N (Breast)): 79000 nM
